From US20070128217A1 (priority 2003, published 2007)

Legend:
[1] = tested on: antibodies in sera from SARS patients (sera 1a, 1b, 2, 6, 37, 62, London, SARS-yellow, SARS-green); assay type: binding, human; parameters: Binding of serum 6 to linear peptides of protein X1 of SARS-CoV Urbani / Binding of serum 37 to linear peptides of protein X1 of SARS-CoV Urbani / Binding of serum 6 to looped/cyclic peptide (PEPSCAN-ELISA) / Binding of serum 37 to looped/cyclic peptide (PEPSCAN-ELISA) / Binding of serum 37 to looped/cyclic peptides of protein X1 of SARS-CoV Urbani / Binding of serum 6 to linear peptides of protein X2 / Binding of serum 37 to linear peptides of protein X2 / Binding of serum 37 to looped/cyclic peptides of protein X2 of SARS-CoV Urbani / Binding of serum 6 to linear peptides of protein M of SARS-CoV Urbani / Binding of serum 37 to linear peptides of protein M of SARS-CoV Urbani / Binding of serum 6 to looped/cyclic peptides of protein M of SARS-CoV Urbani / Binding of serum 37 to looped/cyclic peptides of protein M of SARS-CoV Urbani / Binding of serum 6 to linear peptides of protein X3 of SARS-CoV Urbani / Binding of serum 37 to linear peptides of protein X3 of SARS-CoV Urbani / Binding of serum 37 to looped/cyclic peptides of protein X3 of SARS-CoV Urbani / Binding of serum 6 to linear peptides of protein X4 of SARS-CoV Urbani / Binding of serum 37 to linear peptides of protein X4 of SARS-CoV Urbani / Binding of serum 37 to looped/cyclic peptides of protein X4 of SARS-CoV Urbani / Binding of serum 6 to linear peptides of protein X5 of SARS-CoV Urbani / Binding of serum 37 to linear peptides of protein X5 of SARS-CoV Urbani / Binding of serum 37 to looped/cyclic peptides of protein X5 of SARS-CoV Urbani / Binding of serum 6 to linear peptides of protein N of SARS-CoV Urbani / Binding of serum 37 to linear peptides of protein N of SARS-CoV Urbani / Binding of serum 6 to linear peptide (PEPSCAN-ELISA) / Binding of serum 1a to looped/cyclic peptides of protein N of SARS-CoV Urbani / Binding of serum 1b to looped/cyclic peptides of protein N of SARS-CoV Urbani / Binding of serum 2 to looped/cyclic peptides of protein N of SARS-CoV Urbani / Binding of serum 6 to looped/cyclic peptides of protein N of SARS-CoV Urbani / Binding of serum 37 to looped/cyclic peptides of protein N of SARS-CoV Urbani / Binding of serum 62 to looped/cyclic peptides of protein N of SARS-CoV Urbani / Binding of serum London to looped/cyclic peptides of protein N of SARS-CoV Urbani / Binding of serum SARS-green to looped/cyclic peptides of protein N of SARS-CoV Urbani: unit not given here
[2] = tested on: rabbit serum obtained by immunizing a rabbit with the SARS-CoV strain Frankfurt 1; assay type: binding; parameters: Binding of a rabbit serum to linear peptides / Binding of a rabbit serum to looped peptides / Rabbit serum linear peptides / Rabbit serum looped peptides / Binding of a rabbit serum to linear peptides of protein N of SARS-CoV Urbani (Rabbit serum linear peptides) / Binding of a rabbit serum to looped/cyclic peptides of protein N of SARS-CoV Urbani (Rabbit serum looped peptides): unit not given here
[3] = tested on: control sera (pooled serum of ten healthy LUMC hospital workers; commercial negative donor pooled serum from the Dutch bloodbank); assay type: binding, human; parameters: Binding of Control serum LUMC to linear peptides / Binding of Control serum Blood-bank to linear peptides / Binding of Control serum LUMC to looped peptides / Binding of Control Serum Blood-Bank to Looped peptides / Binding of Control serum LUMC to linear peptides of the protein M of SARS-CoV Urbani / Binding of Control serum Blood-bank to linear peptides of the protein M of SARS-CoV Urbani / Binding of Control serum LUMC to looped peptides of the protein M of SARS-CoV Urbani / Binding of Control Serum Blood-Bank to Looped peptides of the protein M of SARS-CoV Urbani: unit not given here
[4] = tested on: recombinant human anti-SARS-CoV antibody 03-018; assay type: binding; parameters: Binding of antibody 03-018 to linear peptides of the N protein of SARS-CoV Urbani / Binding of antibody 03-018 to looped/cyclic peptides of the N protein of SARS-CoV Urbani: unit not given here

Row | Sequence | Binding of serum 1a to looped/cyclic peptides of protein N of SARS-CoV Urbani [1] | Binding of serum 1b to looped/cyclic peptides of protein N of SARS-CoV Urbani [1] | Binding of serum 2 to looped/cyclic peptides of protein N of SARS-CoV Urbani [1] | Binding of serum 6 to looped/cyclic peptides of protein N of SARS-CoV Urbani [1] | Binding of serum 37 to looped/cyclic peptides of protein N of SARS-CoV Urbani [1] | Binding of serum 62 to looped/cyclic peptides of protein N of SARS-CoV Urbani [1] | Binding of serum London to looped/cyclic peptides of protein N of SARS-CoV Urbani [1] | Binding of serum SARS-green to looped/cyclic peptides of protein N of SARS-CoV Urbani [1] | Binding of serum SARS-yellow to looped/cyclic peptides of protein N of SARS-CoV Urbani [1] | Binding of a rabbit serum to linear peptides of protein N of SARS-CoV Urbani (Rabbit serum linear peptides) [2] | Binding of a rabbit serum to looped/cyclic peptides of protein N of SARS-CoV Urbani (Rabbit serum looped peptides) [2] | Binding of Control Serum Blood-Bank to Looped peptides [3] | Binding of Control serum Blood-bank to linear peptides [3] | Binding of Control serum LUMC to linear peptides [3] | Binding of Control serum LUMC to looped peptides [3] | Binding of antibody 03-018 to linear peptides of the N protein of SARS-CoV Urbani [4] | Binding of antibody 03-018 to looped/cyclic peptides of the N protein of SARS-CoV Urbani [4] | Binding of serum 1a to linear peptide (PEPSCAN-ELISA) [1] | Binding of serum 1b to linear peptide (PEPSCAN-ELISA) [1] | Binding of serum 2 to linear peptide (PEPSCAN-ELISA) [1] | further results
1 | LIRQGTDYKHWPQIA | 0.4 | 0.5 | 0.5 | 0.3 | 0.6 | 0.5 | 0.3 | 1.0 | 1.1 | 0.2 | 0.0 | 0.6 | 0.7 | 0.7 | 0.5 | 0.1 | 0.1 | – | – | – | Binding of serum 1a to linear peptides of protein N of SARS-CoV Urbani [1]: 0.3; Binding of serum 1b to linear peptides of protein N of SARS-CoV Urbani [1]: 0.2; Binding of serum 2 to linear peptides of protein N of SARS-CoV Urbani [1]: 0.4; Binding of serum 6 to linear peptides of protein N of SARS-CoV Urbani [1]: 0.2; Binding of serum 37 to linear peptides of protein N of SARS-CoV Urbani [1]: 0.8; Binding of serum 62 to linear peptides of protein N of SARS-CoV Urbani [1]: 0.9; Binding of serum London to linear peptides of protein N of SARS-CoV Urbani [1]: 0.9; Binding of serum SARS-green to linear peptides of protein N of SARS-CoV Urbani [1]: 0.4; Binding of serum SARS-yellow to linear peptides of protein N of SARS-CoV Urbani [1]: 0.6
2 | LLDRLNQLESKVSGK | 0.2 | 0.1 | 0.2 | 0.1 | 0.4 | 0.4 | 0.3 | 0.0 | 0.1 | 0.6 | 0.1 | 0.3 | 0.7 | 0.6 | 0.2 | 0.1 | 0.2 | 0.2 | 0.1 | 0.3 | Binding of serum 6 to linear peptide (PEPSCAN-ELISA) [1]: 0.2; Binding of serum 37 to linear peptide (PEPSCAN-ELISA) [1]: 0.7; Binding of serum 62 to linear peptide (PEPSCAN-ELISA) [1]: 0.6; Binding of serum London to linear peptide (PEPSCAN-ELISA) [1]: 0.5; Binding of serum SARS-green to linear peptide (PEPSCAN-ELISA) [1]: 0.4; Binding of serum SARS-yellow to linear peptide (PEPSCAN-ELISA) [1]: 0.7
3 | LLLDRLNQLESKVSG | 0.3 | 0.1 | 0.4 | 0.1 | 0.5 | 0.3 | 0.3 | 0.6 | 0.2 | 0.2 | 0.2 | 0.5 | 0.8 | 0.9 | 0.5 | 0.1 | 0.2 | 0.3 | 0.2 | 0.4 | Binding of serum 6 to linear peptide (PEPSCAN-ELISA) [1]: 0.2; Binding of serum 37 to linear peptide (PEPSCAN-ELISA) [1]: 0.8; Binding of serum 62 to linear peptide (PEPSCAN-ELISA) [1]: 0.6; Binding of serum London to linear peptide (PEPSCAN-ELISA) [1]: 0.9; Binding of serum SARS-green to linear peptide (PEPSCAN-ELISA) [1]: 1.1; Binding of serum SARS-yellow to linear peptide (PEPSCAN-ELISA) [1]: 0.7
